# ChEMBL document CHEMBL4828744, “Design, synthesis and biological evaluation of pyridinylmethylenepiperidine derivatives as potent 5-HT1F receptor agonists for migraine therapy” (Eur J Med Chem, 2021)
# Activity calls are given as the source filed them. No cut-off for these calls is given here.
# Assays:
# [1] = Cmax in Sprague-Dawley rat at 50 mg/kg, ig administered for 28 days by LC-MS/MS analysis; type: ADME, organism-based; parameters: route intragastric, time 28 day, dose 50 mg/kg; settings: in vivo, po
# [2] = Toxicity in ig dosed monkey administered for 28 days; type: organism-based, Macaca mulatta; settings: rhesus monkey, in vivo, po; time 28 day
# Rattus norvegicus [3] = assay: Antimigraine activity against electrical stimulation of trigeminal ganglion migraine Wistar rat model assessed as reduction in c-Fos-positive cells at 10 ug/kg, po measured after 60 mins by confocal fluorescence microscopic analysis; type: functional, organism-based; settings: dose 10.0 µg/kg
# [4] = Cmax in Sprague-Dawley rat at 15 mg/kg, ig administered for 28 days by LC-MS/MS analysis; type: ADME, organism-based; parameters: route intragastric, dose 15 mg/kg, time 28 day; settings: in vivo, po
# [5] = biological target: T1, 5-hydroxytryptamine receptor 1A (Homo sapiens, UniProt P08908); assay: Binding affinity to human 5HT1A receptor
# T1 sequence (P08908 whole entry): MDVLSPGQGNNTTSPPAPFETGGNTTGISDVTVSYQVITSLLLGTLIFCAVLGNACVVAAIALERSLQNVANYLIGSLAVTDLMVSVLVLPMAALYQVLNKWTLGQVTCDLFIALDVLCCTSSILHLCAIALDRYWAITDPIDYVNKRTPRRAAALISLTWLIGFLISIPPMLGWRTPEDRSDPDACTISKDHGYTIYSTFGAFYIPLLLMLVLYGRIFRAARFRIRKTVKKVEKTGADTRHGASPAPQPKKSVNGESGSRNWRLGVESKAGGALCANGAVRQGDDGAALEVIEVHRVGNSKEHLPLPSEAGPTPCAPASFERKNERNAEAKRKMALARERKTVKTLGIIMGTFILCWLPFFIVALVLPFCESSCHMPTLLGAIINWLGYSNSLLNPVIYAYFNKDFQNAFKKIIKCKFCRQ
# [6] = Toxicity in ig dosed Sprague-Dawley rat administered for 28 days; type: organism-based; settings: in vivo, po, time 28 day
# [7] = biological target: T2, 5-hydroxytryptamine receptor 2C (Homo sapiens, UniProt P28335); assay: Binding affinity to human 5HT2C receptor
# T2 sequence (P28335 whole entry): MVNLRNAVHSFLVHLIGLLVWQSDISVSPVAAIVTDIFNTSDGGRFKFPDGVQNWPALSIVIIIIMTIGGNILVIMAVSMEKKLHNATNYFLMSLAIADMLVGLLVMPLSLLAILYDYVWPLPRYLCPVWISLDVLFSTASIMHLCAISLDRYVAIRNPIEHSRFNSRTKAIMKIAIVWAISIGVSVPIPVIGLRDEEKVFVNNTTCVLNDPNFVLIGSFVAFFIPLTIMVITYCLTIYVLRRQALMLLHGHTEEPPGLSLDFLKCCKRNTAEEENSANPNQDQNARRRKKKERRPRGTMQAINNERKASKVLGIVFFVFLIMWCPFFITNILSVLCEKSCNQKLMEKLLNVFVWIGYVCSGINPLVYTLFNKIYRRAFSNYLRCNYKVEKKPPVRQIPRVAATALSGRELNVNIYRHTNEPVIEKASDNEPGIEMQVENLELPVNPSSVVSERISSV
# [8] = Cmax in Sprague-Dawley rat at 150 mg/kg, ig administered for 28 days by LC-MS/MS analysis; type: ADME, organism-based; parameters: route intragastric, dose 150 mg/kg, time 28 day; settings: in vivo, po
# [9] = biological target: 5-hydroxytryptamine receptor 2A (Homo sapiens, UniProt P28223); assay: Binding affinity to human 5HT2A receptor
# Chain of 5-hydroxytryptamine receptor 2A (P28223 whole entry): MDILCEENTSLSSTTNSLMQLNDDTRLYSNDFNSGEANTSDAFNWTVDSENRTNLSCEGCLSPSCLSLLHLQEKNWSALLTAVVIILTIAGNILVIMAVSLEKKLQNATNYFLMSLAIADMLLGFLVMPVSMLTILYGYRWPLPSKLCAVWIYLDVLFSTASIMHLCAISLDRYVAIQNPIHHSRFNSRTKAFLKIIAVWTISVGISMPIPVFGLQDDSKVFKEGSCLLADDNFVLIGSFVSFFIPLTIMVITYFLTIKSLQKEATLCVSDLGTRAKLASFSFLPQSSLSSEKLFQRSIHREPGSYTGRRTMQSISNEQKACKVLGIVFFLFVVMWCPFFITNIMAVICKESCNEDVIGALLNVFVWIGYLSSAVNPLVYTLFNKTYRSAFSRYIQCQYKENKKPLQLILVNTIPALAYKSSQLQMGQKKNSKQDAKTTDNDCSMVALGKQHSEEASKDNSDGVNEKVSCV
# [10] = biological target: 5-HT1A/5-HT1F (Homo sapiens) (UniProt P30939+P08908); assay: Selectivity ratio of IC50 for human 5HT1A receptor to IC50 for human 5HT1F receptor; type: protein assay
# [11] = AUC (0 to 24hrs) in monkey at 5 mg/kg, ig by LC-MS/MS analysis; type: ADME, organism-based, Macaca mulatta; parameters: time < 24 hr, route intragastric, dose 5 mg/kg; settings: rhesus monkey, in vivo, po
# Homo sapiens [12] = species: Homo sapiens; assay: Selectivity ratio of IC50 for human 5HT3 receptor to IC50 for human 5HT1F receptor
# [13] = AUC (0 to 24hrs) in Sprague-Dawley rat at 150 mg/kg, ig by LC-MS/MS analysis; type: ADME, organism-based; parameters: time < 24 hr, route intragastric, dose 150 mg/kg; settings: in vivo, po
# [14] = AUC (0 to 24hrs) in Sprague-Dawley rat at 15 mg/kg, ig by LC-MS/MS analysis; type: ADME, organism-based; parameters: time < 24 hr, route intragastric, dose 15 mg/kg; settings: in vivo, po
# [15] = biological target: 5-hydroxytryptamine receptor 2B (Homo sapiens, UniProt P41595); assay: Binding affinity to human 5HT2B receptor
# Chain of 5-hydroxytryptamine receptor 2B (P41595 whole entry): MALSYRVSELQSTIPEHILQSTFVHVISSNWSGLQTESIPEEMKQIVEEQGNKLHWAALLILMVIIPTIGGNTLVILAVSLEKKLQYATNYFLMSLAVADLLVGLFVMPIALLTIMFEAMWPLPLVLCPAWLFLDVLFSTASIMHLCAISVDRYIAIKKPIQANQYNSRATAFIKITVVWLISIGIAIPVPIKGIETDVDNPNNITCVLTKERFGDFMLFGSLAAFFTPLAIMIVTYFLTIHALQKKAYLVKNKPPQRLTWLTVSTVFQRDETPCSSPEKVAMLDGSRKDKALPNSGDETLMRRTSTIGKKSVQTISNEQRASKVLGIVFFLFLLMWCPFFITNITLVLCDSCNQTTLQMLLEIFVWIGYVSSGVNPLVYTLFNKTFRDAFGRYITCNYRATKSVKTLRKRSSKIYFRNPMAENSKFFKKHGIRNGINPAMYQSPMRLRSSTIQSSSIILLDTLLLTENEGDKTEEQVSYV
# Homo sapiens [16] = species: Homo sapiens; assay: Selectivity ratio of IC50 for human 5HT2A receptor to IC50 for human 5HT1F receptor
# [17] = AUC (0 to 24hrs) in monkey at 25 mg/kg, ig by LC-MS/MS analysis; type: ADME, organism-based, Macaca mulatta; parameters: time < 24 hr, route intragastric, dose 25 mg/kg; settings: rhesus monkey, in vivo, po
# [18] = Half life in Sprague-Dawley rat at 1 mg/kg, iv measured for 24 hrs by LC-MS/MS analysis; type: ADME, organism-based; settings: in vivo
# [19] = biological target: 5-HT1B/5-HT1F (Homo sapiens) (UniProt P30939+P28222); assay: Selectivity ratio of IC50 for human 5HT1B receptor to IC50 for human 5HT1F receptor; type: protein assay
# Chain of 5-HT1B/5-HT1F (Homo sapiens) (P28222 whole entry, looked up, one chain of several): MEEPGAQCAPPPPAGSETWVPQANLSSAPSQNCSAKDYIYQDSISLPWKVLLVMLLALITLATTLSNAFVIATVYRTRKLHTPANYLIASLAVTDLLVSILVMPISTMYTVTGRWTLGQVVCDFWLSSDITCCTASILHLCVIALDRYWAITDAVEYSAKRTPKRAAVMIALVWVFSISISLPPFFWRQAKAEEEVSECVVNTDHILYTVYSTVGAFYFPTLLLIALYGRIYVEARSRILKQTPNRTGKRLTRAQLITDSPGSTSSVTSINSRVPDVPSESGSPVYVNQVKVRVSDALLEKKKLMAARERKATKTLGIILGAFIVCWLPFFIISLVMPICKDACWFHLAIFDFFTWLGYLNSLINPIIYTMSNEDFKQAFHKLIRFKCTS
# [20] = biological target: T3, 5-hydroxytryptamine receptor 1F (Homo sapiens, UniProt P30939); assay: Binding affinity to human 5HT1F receptor
# T3 sequence (P30939 whole entry): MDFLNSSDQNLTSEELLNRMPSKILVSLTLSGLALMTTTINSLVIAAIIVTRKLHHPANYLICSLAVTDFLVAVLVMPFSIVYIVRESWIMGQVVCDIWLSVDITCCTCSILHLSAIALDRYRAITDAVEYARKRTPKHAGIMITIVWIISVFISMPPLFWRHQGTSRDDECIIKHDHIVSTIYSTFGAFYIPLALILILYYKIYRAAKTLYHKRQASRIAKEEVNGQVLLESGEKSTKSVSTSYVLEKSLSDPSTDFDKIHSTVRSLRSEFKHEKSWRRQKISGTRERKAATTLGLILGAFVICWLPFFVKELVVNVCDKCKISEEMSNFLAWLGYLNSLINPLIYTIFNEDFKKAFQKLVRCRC
# Homo sapiens [21] = species: Homo sapiens; assay: Selectivity ratio of IC50 for human 5HT2C receptor to IC50 for human 5HT1F receptor
# Rattus norvegicus [22] = assay: Antimigraine activity against electrical stimulation of trigeminal ganglion migraine Wistar rat model assessed as reduction in dural plasma protein extravasation at 0.01 to 0.1 ug/kg, po measured after 45 mins by confocal fluorescence microscopic analysis; type: functional, organism-based; settings: dose 0.01-0.1 µg/kg
# [23] = biological target: T3, 5-hydroxytryptamine receptor 1F; assay: Agonist activity at 5HT1F receptor (unknown origin) expressed in HEK293 cells measured after 60 mins by Fluo-4AM dye based FLIPR assay; type: functional, cell-based; settings: read-out: IC50 (the source's name)
# [24] = Volume of distribution at steady state in Sprague-Dawley rat at 1 mg/kg, iv measured for 24 hrs by LC-MS/MS analysis; type: ADME, organism-based; settings: in vivo, read-out: Vdss
# [25] = Half life in Sprague-Dawley rat at 5 mg/kg, ig measured for 24 hrs by LC-MS/MS analysis; type: ADME, organism-based; settings: in vivo, po
# [26] = AUC (0 to 24hrs) in Sprague-Dawley rat at 50 mg/kg, ig by LC-MS/MS analysis; type: ADME, organism-based; parameters: time < 24 hr, route intragastric, dose 50 mg/kg; settings: in vivo, po
# [27] = Cmax in monkey at 5 mg/kg, ig administered for 28 days by LC-MS/MS analysis; type: ADME, organism-based, Macaca mulatta; parameters: route intragastric, time 28 day, dose 5 mg/kg; settings: rhesus monkey, in vivo, po
# [28] = Toxicity in Sprague-Dawley rat assessed as effect on body weight at 150 mg/kg/day, ig administered for 28 days; type: organism-based; settings: in vivo, po, 672 h, time 28 day
smiles,measurement,setting,value
CN1CCC(=C(F)c2cccc(NC(=O)c3c(F)cc(F)cc3F)n2)CC1,Cmax,[1],523 ng/mL
same,NOAEL at 672 h,[2],5 mg/kg/day
same,Activity,Rattus norvegicus [3],Active
same,Cmax,[4],160 ng/mL
same,IC50,[5],151 nM
same,NOAEL at 672 h,[6],50 mg/kg/day
same,IC50,[7],7060 nM
same,Cmax,[8],841 ng/mL
same,IC50,[9],4870 nM
same,Ratio IC50,[10],472
same,AUC(0-t) at 24 h,[11],45200 ng·h/mL
same,Ratio IC50,Homo sapiens [12],> 10000
same,AUC(0-t) at 24 h,[13],10200 ng·h/mL
same,AUC(0-t) at 24 h,[14],849 ng·h/mL
same,IC50,[15],8600 nM
same,Ratio IC50,Homo sapiens [16],> 10000
same,AUC(0-t) at 24 h,[17],67400 ng·h/mL
same,half-life,[18],1.33 h
same,Ratio IC50,[19],> 10000
same,IC50,[20],0.32 nM
same,Ratio IC50,Homo sapiens [21],> 10000
same,Activity,Rattus norvegicus [22],Active
same,EC50,[23],19.6 nM
same,Vd,[24],12.8 L/kg
same,half-life,[25],2.95 h
same,AUC(0-t) at 24 h,[26],5290 ng·h/mL
same,Cmax,[27],3410 ng/mL
same,Activity,[28],Non-Toxic
